Results published in patent US9090632B2, “Bicyclic oxazole and thiazole compounds and their use as allosteric modulators of mGluR5 receptors” (Vanderbilt University, priority 2010, dated 2015).

How the values were obtained:
human mGluR5 = human mGluR5 (Homo sapiens, UniProt P41594); test: Cell-based functional Ca2+ mobilization assay, potentiation of glutamate EC20 response (H10H cell-line); conditions: H10H cell-line expressing recombinant human mGluR5; for Emax / Emax (%): in presence of glutamate EC20, normalized to maximal glutamate response; for EC50 / pEC50: potentiation in presence of glutamate EC20
Chain of human mGluR5 (P41594 21-1180 isoform P41594-2 limits assumed): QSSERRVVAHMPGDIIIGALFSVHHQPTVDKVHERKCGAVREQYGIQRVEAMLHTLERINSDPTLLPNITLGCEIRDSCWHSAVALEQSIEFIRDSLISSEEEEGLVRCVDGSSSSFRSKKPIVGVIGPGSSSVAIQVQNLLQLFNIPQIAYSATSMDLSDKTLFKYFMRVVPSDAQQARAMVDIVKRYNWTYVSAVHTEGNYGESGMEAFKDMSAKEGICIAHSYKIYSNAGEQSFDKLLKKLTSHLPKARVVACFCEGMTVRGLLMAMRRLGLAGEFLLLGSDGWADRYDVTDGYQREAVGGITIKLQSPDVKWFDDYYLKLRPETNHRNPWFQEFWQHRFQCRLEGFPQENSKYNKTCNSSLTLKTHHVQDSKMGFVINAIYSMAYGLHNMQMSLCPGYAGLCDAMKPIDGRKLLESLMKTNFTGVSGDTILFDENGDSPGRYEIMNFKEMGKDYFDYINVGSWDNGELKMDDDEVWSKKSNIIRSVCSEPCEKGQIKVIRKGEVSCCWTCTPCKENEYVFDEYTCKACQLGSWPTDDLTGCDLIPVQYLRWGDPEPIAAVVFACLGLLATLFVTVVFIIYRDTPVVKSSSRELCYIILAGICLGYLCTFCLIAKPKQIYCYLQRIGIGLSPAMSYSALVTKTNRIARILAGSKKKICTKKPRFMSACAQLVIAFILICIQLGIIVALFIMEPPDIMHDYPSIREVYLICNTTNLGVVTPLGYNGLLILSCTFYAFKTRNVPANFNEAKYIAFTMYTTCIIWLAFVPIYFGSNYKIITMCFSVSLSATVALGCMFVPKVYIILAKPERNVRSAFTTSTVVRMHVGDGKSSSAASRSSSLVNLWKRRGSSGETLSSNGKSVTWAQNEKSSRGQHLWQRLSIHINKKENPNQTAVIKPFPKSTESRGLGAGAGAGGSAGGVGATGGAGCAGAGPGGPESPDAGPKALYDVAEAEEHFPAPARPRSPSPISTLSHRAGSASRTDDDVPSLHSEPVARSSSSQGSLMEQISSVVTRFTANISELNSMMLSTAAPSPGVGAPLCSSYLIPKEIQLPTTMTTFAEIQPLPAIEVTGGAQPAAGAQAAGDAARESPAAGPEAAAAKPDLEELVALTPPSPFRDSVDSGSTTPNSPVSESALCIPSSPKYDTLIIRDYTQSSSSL
Method: Human embryonic kidney (HEK) cells transfected with rat mGluR5 were plated in clear bottom assay plates for assay in a Functional Drug Screening System (FDSS). In the alternative assay, HEK cells transfected with human mGluR5 were plated for assay in the FDSS. In some cases the HEK cells transfected with human mGluR5 are the H10H cell line. Alternatively, the HEK cells transfected with human mGluR5 are the H12H cell line. […] The cells were loaded with a Ca^2+-sensitive fluorescent dye (e.g., Fluo-4), and the plates were washed and placed in the FDSS instrument. After establishment of a fluorescence baseline for about three seconds, the compounds of the present invention were added to the cells, and the response in cells was measured. Five minutes later, an mGluR5 agonist (e.g., glutamate, 3,5-dihydroxyphenylglycine, or quisqualate) was added to the cells, and the response of the cells was measured. Potentiation of the agonist response of mGluR5 by the compounds in the present invention was observed as an increase in response to non-maximal concentrations of agonist (here, glutamate) in the presence of compound compared to the response to agonist in the absence of compound.
The above described assay can be operated in two modes. In the first mode, a range of concentrations of the present compounds were added to cells, followed by a single fixed concentration of agonist. If a compound acted as a potentiator, an EC50 value for potentiation and a maximum extent of potentiation by the compound at this concentration of agonist was determined by non-linear curve fitting. In the second mode, several fixed concentrations of the present compounds were added to various wells on a plate, followed by a range of concentrations of agonist for each concentration of present compound; the EC50 values for the agonist at each concentration of compound were determined by non-linear curve fitting. A decrease in the EC50 value of the agonist with increasing concentrations of the present compounds (a leftward shift of the agonist concentration-response curve) is an indication of the degree of mGluR5 potentiation at a given concentration of the present compound. An increase in the EC50 value of the agonist with increasing concentrations of the present compounds (a rightward shift of the agonist concentration-response curve) is an indication of the degree of mGluR5 antagonism at a given concentration of the present compound. The second mode also indicates whether the present compounds also affect the maximum response to mGluR5 to agonists.
Human mGluR5a cDNA in pCMV6-XL6 mammalian expression plasmid was purchased from OriGene Technologies, Inc. (catalogue number SC326357) and subcloned into pcDNA3.1(−). Human embryonic kidney (HEK) 293A cells were then transfected with human mGluR5a pcDNA3.1(−) using LipofectAmine 2000 (Invitrogen) and monoclones were selected and tested for functional response using a Ca^2+ mobilization assay. Monoclones were named for the species (“H” for human) plus the location on the plate (e.g. “10H”).
HEK cells transfected with the human mGluR5a receptor were plated at 15,000 cells/well in clear-bottomed poly-D-lysine-coated assay plates (BD Falcon) in glutamate-glutamine-free growth medium and incubated overnight at 37° C. and 5% CO2. The cell-line used to obtain the data reported herein was the H10H cell-line expressing the human mGluR5 receptor. Although the H10H cell-line was used to obtain the data shown herein, the H12H cell-line expressing the human mGluR5 receptor can also be used in these assays. The following day, the growth medium was removed and the cells were washed with assay buffer containing 1× Hank's balanced salt solution (Invitrogen, Carlsbad, Calif.), 20 mM HEPES, 2.5 mM probenecid, pH 7.4 and left with 20 μL of this reagent. Following this step, the cells were loaded with calcium indicator dye, fluo-4 AM, to a final concentration of 2 μM and incubated for 40-45 min at 37° C. […]

melting point | Emax (human mGluR5) | EC50 (human mGluR5) | Emax (%) (human mGluR5) | pEC50 (human mGluR5) | SMILES
147.7 °C | 81% | 1050 nM | – | – | N#Cc1cc(C(=O)N2CCc3nc(COc4cccc(F)c4)oc3C2)ccc1F [Example B97]
130 °C | 64.5% | 295 nM | – | – | N#Cc1cccc(C(=O)N2CCc3nc(COc4ccccc4)oc3C2)c1 [Example B43]
198.1 °C | 14% | > 30200 nM | – | – | O=C(c1ccc2[nH]cnc2c1)N1CCc2nc(COc3ccccc3)oc2C1 [Example B156]
70 °C | 44% | 148 nM | – | – | O=C(c1cc(F)cc(F)c1)N1CCc2nc(COc3cccc(F)c3)oc2C1 [Example B30]
102.9 °C | 67% | 501 nM | – | – | CN(C)c1cccc(C(=O)N2CCc3nc(COc4ccccc4)oc3C2)c1 [Example B83]
109.8 °C | 67% | 3310 nM | – | – | O=C(c1ncc(F)cc1F)N1CCc2nc(COc3cccc(F)c3)oc2C1 [Example B101]
130.8 °C | 64% | > 10000 nM | – | – | O=C(c1cnn2ccccc12)N1CCc2nc(COc3ccccc3)oc2C1 [Example B95]
128.7 °C | 68% | 1120 nM | – | – | O=C(c1ccc(F)nc1)N1CCc2nc(COc3ccccc3)oc2C1 [Example B94]
113.1 °C | 67% | 2950 nM | – | – | O=C(c1ccc(F)cn1)N1CCc2nc(COc3ccccc3)oc2C1 [Example B40]
137.2 °C | 56% | > 10000 nM | – | – | Cc1ccc(OCc2nc3c(o2)CN(C(=O)c2ccc(F)cc2)CC3)cc1 [Example B70]
74.7 °C | 76% | 186 nM | – | – | O=C(c1cccc(F)c1)N1CCc2nc(COc3cccc(F)c3)oc2C1 [Example B27]
90.1 °C | 71% | 331 nM | – | – | O=C(c1ccc(F)cc1F)N1CCc2nc(COc3cccc(F)c3)oc2C1 [Example B78]
– | 20% | > 10000 nM | – | – | Cc1nc(C(=O)N2CCc3nc(COc4ccccc4)oc3C2)no1 [Example B161]
– | 17% | > 30200 nM | – | – | O=C(c1cccnn1)N1CCc2nc(COc3ccccc3)oc2C1 [Example B162]
– | – | – | 72% | 5.85 | O=C(c1ccc(F)cc1)N1CCc2nc(COc3cccc(Cl)c3)oc2C1 [Example B69]
– | 27% | > 30200 nM | – | – | Cn1cncc1C(=O)N1CCc2nc(COc3ccccc3)oc2C1 [Example B158]
– | – | – | 51% | 6.72 | Cc1ccoc1C(=O)N1CCc2nc(COc3ccccc3)oc2C1 [Example B121]
– | 60% | – | – | 6.19 | O=C(c1ccc(F)cc1)N1CCc2nc(COc3ccc(F)c(F)c3)oc2C1 [Example B11]
– | – | – | 57% | 6.70 | Cc1ccc(C(=O)N2CCc3nc(COc4ccccc4)oc3C2)s1 [Example B110]
– | – | – | 81% | 6.05 | O=C(c1ccc(F)cc1)N1Cc2nc(COc3ccccc3)oc2C1 [Example B21]
– | – | – | 72% | 5.82 | O=C(OCc1ccccc1)N1CCc2nc(COc3ccccc3)oc2C1 [Example B20]
– | 26% | > 30200 nM | – | – | O=C(c1c[nH]cn1)N1CCc2nc(COc3ccccc3)oc2C1 [Example B154]
– | – | – | 72% | 5.89 | N#Cc1cc(C(=O)N2CCc3nc(COc4ccccc4)oc3C2)ccn1 [Example B87]
– | – | – | 62% | 5.7 | O=C(C1CCc2cc(F)ccc2O1)N1CCc2nc(COc3ccccc3)oc2C1 (stereo not drawn) [Example B82]

melting point | Emax (human mGluR5) | EC50 (human mGluR5) | Emax (%) (human mGluR5) | pEC50 (human mGluR5) | SMILES
– | – | – | 58% | 5.66 | N#Cc1ccc(C(=O)N2CCc3nc(COc4ccccc4)oc3C2)cc1F [Example B90]
– | – | – | 22% | <4.52 | O=C1CCC(C(=O)N2CCc3nc(COc4ccccc4)oc3C2)N1 (stereo not drawn) [Example B105]
– | 22% | > 30200 nM | – | – | O=C(c1ccc(F)cc1)N1CCc2nc(COc3ccccc3C(F)(F)F)oc2C1 [Example B130]
– | 58% | 3550 nM | – | – | O=C(CC1CC1)N1CCc2nc(COc3ccccc3)oc2C1 [Example B2, 5-(cyclopropylacetyl)-2-(phenoxymethyl)-4,5,6,7-tetrahydro[1,3]oxazolo[5,4-c]pyridine]
– | 67% | > 10000 nM | – | – | O=C(c1cc2ccccc2o1)N1CCc2nc(COc3ccccc3)oc2C1 [Example B120]
– | – | – | 83% | 6.35 | O=C(c1ccc(F)cc1)N1CCCc2nc(COc3ccccc3)sc2C1 [Example B25]
– | 33% | > 10000 nM | – | – | O=C(CC(F)(F)F)N1CCc2nc(COc3ccccc3)oc2C1 [Example B116]
– | – | – | 45% | 6.58 | Cn1ccc(Cl)c1C(=O)N1CCc2nc(COc3ccccc3)oc2C1 [Example B113]
– | – | – | 57% | 6.43 | N#Cc1cc(F)cc(C(=O)N2CCc3nc(COc4ccccc4)oc3C2)c1 [Example B50]
– | 60% | 1910 nM | – | – | O=C(COc1ccccc1)N1CCc2nc(COc3ccccc3)oc2C1 [Example B80]
– | 56% | > 10000 nM | – | – | O=C(c1ncccc1F)N1CCc2nc(COc3ccccc3)oc2C1 [Example B47]
– | – | – | 25% | <4.52 | O=C(c1ccc(F)cc1)N1CCc2nc(COc3ccc(C(F)(F)F)cc3)oc2C1 [Example B128]
– | – | – | 57% | 7.14 | O=C(c1ccc(Cl)o1)N1CCc2nc(COc3ccccc3)oc2C1 [Example B57]
– | 69% | 2000 nM | – | – | Cc1ccnc(OCc2nc3c(o2)CN(C(=O)c2ccc(F)cc2)CC3)c1 [Example B33, 5-[(4-fluorophenyl)carbonyl]-2-{[(4-methylpyridin-2-yl)oxy]methyl}-4,5,6,7-tetrahydro[1,3]oxazolo[5,4-c]pyridine]
– | – | – | 69% | 5.33 | O=C(c1cccnc1)N1CCc2nc(COc3ccccc3)oc2C1 [Example B18]
– | – | – | 24% | <4.52 | N#Cc1cc(Br)cc(OCc2nc3c(o2)CN(C(=O)c2ccc(F)cc2)CC3)c1 [Example B137]
– | 56% | 501 nM | – | – | Cn1c(C(=O)N2CCc3nc(COc4ccccc4)oc3C2)cc2ccccc21 [Example B36, 5-[(1-methyl-1H-indol-2-yl)carbonyl]-2-(phenoxymethyl)-4,5,6,7-tetrahydro[1,3]oxazolo[5,4-c]pyridine]
– | 71% | 2400 nM | – | – | O=C(c1ccc(F)cc1)N1CCc2nc(COc3ccccn3)oc2C1 [Example B68]
– | – | – | 52% | 6.73 | N#Cc1cc(F)cc(C(=O)N2CCc3nc(COc4cccc(F)c4)oc3C2)c1 [Example B92]
– | 60% | 4070 nM | – | – | O=C(c1ncc(F)cc1F)N1CCc2nc(COc3ccccc3)oc2C1 [Example B38]
– | – | – | 66% | 6.34 | COc1ccc(C(=O)N2CCc3nc(COc4ccccc4)oc3C2)s1 [Example B102]
– | – | – | 86% | 6.60 | O=C(c1ccc(F)c(F)c1)N1CCc2nc(COc3ccccc3)oc2C1 [Example B17]
– | 57% | > 10000 nM | – | – | O=C(c1ncccc1Cl)N1CCc2nc(COc3ccccc3)oc2C1 [Example B74]
– | – | – | 54% | <5 | O=C(c1ccccn1)N1CCc2nc(COc3ccccc3)oc2C1 [Example B23]
